# How the values were obtained:
# SEB-restimulated PBMCs = assay: IFNγ production in SEB-restimulated PBMCs (Example 1); type: cell-based, human; conditions: FIG. 5 (Inhibitor 3 at 10 μM)
# Description: The effect of USP9X inhibition on PBMCs that have been re-stimulated with SEB was also investigated. […] This is consistent with the notion that the SEB-restimulated T cells were in a state of exhaustion or rendered tolerant to SEB.
# [1] = tested on: SEB-exhausted human PBMCs; assay: cells; type: cell-based
# female BALB/c mice = assay: SEB-induced peripheral tolerance in mice, spleen and splenocyte readouts (Example 7); type: in vivo
# Description: Peripheral tolerance/inactivation was induced in female BALB/c mice by a single intraperitoneal injection of 30 μg SEB. Mice were treated with a positive control (anti-CTLA4) or various doses of USP9X Inhibitor 3. Spleens and splenocytes were harvested at 24 hr after the last dose. […] No changes in IL-2 and IFNγ levels were detected in the supernatants from SEB-restimulated splenocytes.
# [2] = tested on: mixed lymphocyte reaction; assay: mixed lymphocyte reaction (MLR) assay (Example 2); type: cell-based; conditions: FIG. 7
# Description: (§1) Given the reported role of ITCH and Cbl-b in T cell tolerance and as a negative regulator of T-cell receptor (TCR)/[…] 28 (CD28) signaling, the effects of USP9X inhibition were evaluated in a CD3/CD28 activation assay and in a mixed lymphocyte reaction (MLR) assay.
# [3] = tested on: Human total T cells (CD3+); assay: Human T cell activation with CD3/CD28 activator, IFNγ ELISA (Example 6); type: cell-based; conditions: 4 days, two donors, FIGS. 11-12
# Description: Human total T cells (CD3+) were isolated using EasySep™ immunomagnetic beads (Stemcell Technologies) from healthy human PBMCs (Hemacare). Cells were stained with Cell Trace Violet proliferation dye (Invitrogen), and treated with agent or DMSO. Cells were also stimulated with a CD3/CD28 activator (Stemcell Technologies). After 4 days of incubation, cells and supernatant were collected; cells were washed with staining buffer (PBS with 2% FBS) twice and centrifuged (350 g for 5 min). Cells were stained with LIVE/DEAD stain (Invitrogen), FITC-CD4 (BD Pharmingen) and CD8 (BD Pharmingen) in 100 μL volume for 30 mins at 4° C. Cells were washed twice as described above, resuspended in 100 μL staining buffer and analyzed using a BD Canto II (BD Biosciences). Data was analyzed using FlowJo V10 (FlowJo LLC). Secreted IFNγ was measured by ELISA (Dakewe Biotech Co., Ltd). All data were analyzed by Graphpad Prism 6.0 (GraphPad Software).
# [4] = tested on: CD3/CD28 Activated T Cells; assay: anti-CD3/CD28 T cell activation assay (Example 2); type: cell-based; conditions: FIG. 6
# Description: as §1
# A375 melanoma cells = assay: Allogeneic PBMC-mediated cytotoxicity of A375 melanoma cells, caspase 3/7 (Example 4); type: cell-based, human; conditions: with SEB-stimulated PBMCs, FIG. 9A/9B
# Description: A375 cells incubated alone, in the absence of SEB-stimulated PMBCs, with either compound had no significant effect on cellular apoptosis.
# [5] = highest dose group, 24 hr after last dose
Compound,IFNγ production following SEB-restimulation (SEB-restimulated PBMCs),IFNγ production compared to DMSO or negative control compound 5 [1],"EC50 ([1]; Homo sapiens, PBMC, 48 h, read-out: EC50 value for IFNγ secretion) [nM]","Spleen protein level of Cbl-b, reduction (female BALB/c mice; [5]) [%]","Spleen protein level of ITCH, reduction (female BALB/c mice; [5]) [%]",Spleen protein levels of Cbl-b and ITCH (female BALB/c mice; lower doses),IL-2 and IFNγ levels in supernatants from SEB-restimulated splenocytes (female BALB/c mice; splenocytes harvested 24 hr after last dose),IFNγ secretion in the MLR assay [2],"EC50 ([2]; Lymphocyte, read-out: EC50 for IFNγ secretion in the MLR assay) [nM]",IFNγ production [3],IFNγ production [4],A375 apoptosis (caspase 3/7 activity) (A375 melanoma cells)
"CNC[C@H](C(=O)N1CC2=C(C1)CN(S(=O)(=O)c1ccc3c(c1)OCCO3)C2)c1cccc(Cl)c1 [USP9X Inhibitor 3, (2R)-2-(3-chlorophenyl)-1-[5-(2,3-dihydro-1,4-Benzodioxine-6-sulfonyl)-1H,2H,3H,4H,5H,6H-pyrrolo[3,4-c]pyrrol-2-yl]-3-(methylamino)propan-1-one]",restored IFNγ production to varying degrees depending on the donor,significantly increase IFNγ production,100 to 1000,81,64,no notable changes,No changes,promoted IFNγ secretion,100 to 1000,increased,the most profound effect,enhanced A375 apoptosis in a concentration-dependent manner
"O=S(=O)(c1ccc(-c2ncco2)cc1)N1Cc2cnc(C(O)c3cccc(N4CCNCC4)c3)cc2C1 (stereo not shown) [USP9X Inhibitor 4, [2-[4-(1,3-oxazol-2-yl)benzenesulfonyl]-1H,2H,3H-pyrrolo[3,4-c]pyridin-6-yl][3-(piperazin-1-yl)phenyl] methanol]",,,,,,,,,,increased,,

# Source: US20210346356A1, “INHIBITING UBIQUITIN SPECIFIC PEPTIDASE 9X” (FORMA THERAPEUTICS, INC., priority 2018, published 2021)
